How the values were obtained:
Assay type in all cases: in vivo
[1] = system: Soybean variety "Cordoba"; test: Plant growth test, greenhouse, seed treatment, soybean variety Cordoba; conditions: for Green surface, % of untreated: 15 days; for Green surface: 15 days at 20° C., 80% relative humidity
Procedure: (§1) The test is performed in the greenhouse. 7 soybean seeds per treatment of 2 varieties (Cordoba and Isidor) were sown in 5 liter pots containing 13 cm of a mix of steamed field soil and sand (1:1), 2 replicates were made. The tested compound as well as the reference active ingredient were both solved in a standard solvent used for soybean seed application and known to be safe. Seed treatment was performed with the aid of laboratory equipment. For untreated, 4 replicates were made and seeds were treated with the pure solvent. 2 fungicide concentrations were tested: 5 g a.i./100 kg and 10 g a.i./100 kg. Seeds were then covered by 5 cm of the same mix of steamed field soil and sand (1:1). Pots were incubated in the greenhouse 15 days at 20° C. and 80% relative humidity. Assessment consisted of calculation of green surface of soybean (pixel) using a digital imaging software to manage data analysis.

Soybean variety "Isidor" = test: Plant growth test, greenhouse, seed treatment, soybean variety Isidor; conditions: for Green surface, % of untreated: 15 days; for Green surface: 15 days at 20° C., 80% relative humidity
Procedure: as §1

soybean seeds = test: Emergence of soybean plants after seed treatment; conditions: soybean seeds treated

Row | SMILES | Green surface, % of untreated ([1]; seed treatment 5 g a.i./100kg) | Green surface ([1]; seed treatment 5 g a.i./100kg) | Green surface, % of untreated ([1]; seed treatment 10 g a.i./100kg) | Green surface ([1]; seed treatment 10 g a.i./100kg) | Green surface, % of untreated (Soybean variety "Isidor"; seed treatment 5 g a.i./100kg) | Green surface (Soybean variety "Isidor"; seed treatment 5 g a.i./100kg) | Green surface, % of untreated (Soybean variety "Isidor"; seed treatment 10 g a.i./100kg) | Green surface (Soybean variety "Isidor"; seed treatment 10 g a.i./100kg) | Emergence of the soybean plants in comparison to untreated plants (soybean seeds)
1 | O=C(Nc1ccccc1-c1ccc(Cl)cc1)c1cccnc1Cl [Boscalid, reference compound] | 109 % of untreated | 74661 pixel | 113 % of untreated | 77243 pixel | 86 % of untreated | 71972 pixel | 86 % of untreated | 72634 pixel | 
2 | Cc1nn(C)c(F)c1C(=O)Nc1ccccc1C(C)CC(C)C (centres unmarked) [Penflufen, N-{2-(1,3-dimethylbutyl)anilino}-1,3-dimethyl-5-fluor-4-pyrazol] | 160 % of untreated | 109373 pixel | 158 % of untreated | 108284 pixel | 125 % of untreated | 105395 pixel | 133 % of untreated | 111543 pixel | earlier emergence

From patent US20110009267A1, “Process for Improving Seedling Growth and/or Early Emergence of Crops” (Bayer CropScience AG, priority 2009, published 2011)
